Values of other authors in patent publication US20240358731A1, “SUMO PATHWAY AS AN OXYGEN SENSOR RELEVANT TO THE PATHOPHYSIOLOGY OF PULMONARY ARTERY HYPERTENSION AND CARDIAC ARRHYTHMIA” (Northeastern University, priority 2023, published 2024).
Non-standard residues stand in square brackets, D forms with d. Residues, ends and D or L forms follow the SMILES beside them. ξ: configuration not given here. *: point of attachment. X2 = O=C(CN*)COC(=O)c1c2ccccc2cc2ccccc12; X1 = O=C(Cc1ccc(O)c([N+](=O)[O-])c1)*; Thr(3ξ) = CC(O)[C@H](N)C(=O)O

Assays:
Conditions in all cases: cited from earlier work
[1] = system: SUMOylation
[2] = molecular target: T1, SUMO activating enzyme (SAE) (Homo sapiens, UniProt Q9UBE0+Q9UBT2)
T1 sequence (Q9UBE0 1-346): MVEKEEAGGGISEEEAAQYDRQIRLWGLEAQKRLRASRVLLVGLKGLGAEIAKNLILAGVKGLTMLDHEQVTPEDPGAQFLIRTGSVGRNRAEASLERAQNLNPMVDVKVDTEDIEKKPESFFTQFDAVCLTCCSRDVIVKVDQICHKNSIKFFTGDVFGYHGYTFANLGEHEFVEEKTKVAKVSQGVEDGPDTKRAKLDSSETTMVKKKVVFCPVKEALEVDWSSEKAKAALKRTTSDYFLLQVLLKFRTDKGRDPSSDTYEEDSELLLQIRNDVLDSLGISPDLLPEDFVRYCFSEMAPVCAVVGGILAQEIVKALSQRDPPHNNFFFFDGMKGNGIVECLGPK
T1 sequence (Q9UBT2 1-640): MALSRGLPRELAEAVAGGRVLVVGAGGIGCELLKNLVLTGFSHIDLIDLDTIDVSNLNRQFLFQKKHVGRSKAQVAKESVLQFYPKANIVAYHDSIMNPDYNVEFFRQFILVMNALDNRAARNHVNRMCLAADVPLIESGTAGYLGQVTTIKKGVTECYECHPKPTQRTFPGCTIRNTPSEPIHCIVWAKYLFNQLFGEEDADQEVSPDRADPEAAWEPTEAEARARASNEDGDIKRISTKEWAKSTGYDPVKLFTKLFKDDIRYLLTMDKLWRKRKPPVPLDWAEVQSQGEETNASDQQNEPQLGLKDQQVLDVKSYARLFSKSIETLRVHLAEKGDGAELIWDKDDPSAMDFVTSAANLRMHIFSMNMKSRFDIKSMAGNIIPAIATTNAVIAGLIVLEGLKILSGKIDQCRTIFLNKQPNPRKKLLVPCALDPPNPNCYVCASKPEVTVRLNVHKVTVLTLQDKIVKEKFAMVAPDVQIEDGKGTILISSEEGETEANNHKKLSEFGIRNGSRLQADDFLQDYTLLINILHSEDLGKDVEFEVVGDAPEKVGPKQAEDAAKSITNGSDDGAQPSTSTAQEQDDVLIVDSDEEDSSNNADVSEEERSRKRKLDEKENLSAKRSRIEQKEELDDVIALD

[3] = system: SENP

| Structure (SMILES) | SUMOylation inhibition [1] | SENP inhibition [3] | also measured |
| --- | --- | --- | --- |
| Cc1cc2c(o1)-c1ccccc1C(=O)C2=O [33-DINOR-dehydrodunnione] | potent SUMOylation inhibitors |  |  |
| CC1CC2=C(O1)c1ccccc1C(=O)C2=O (stereo not shown) [33-DINOR-dunnione] | potent SUMOylation inhibitors |  |  |
| C=CC[C@@H](Nc1ccccc1)C12C=CC(O1)C(C(=O)OC)=C2C(=O)OC (stereo partly shown) [CID9549553] |  |  | SAE / SUMO E1 inhibition [2]: covalently targets an allosteric binding pocket of SUMO E1 |
| COC(=O)C1=C(C(=O)OC)C2([C@@H](Cc3ccc(C)cc3)Nc3ccccc3)C=CC1O2 (stereo partly shown) [COH000] | more potent SUMOylation inhibitor |  |  |
| COc1ccc(NC(=O)Nc2ccc(Oc3ncnc4cc(Cl)ccc34)nc2)cc1OC1CCCC1 [Compound 10] | potent in vitro SUMOylation inhibitor |  | formation of the E1-SUMO complex [2]: prevents formation of the E1-SUMO complex |
| CCCCn1c(NS(=O)(=O)c2ccccc2)c(S(=O)(=O)c2ccc(C)cc2)c2nc3ccccc3nc21 [Compound 15] |  |  | SAE / SUMO E1 inhibition [2]: most potent |
| O=CCN1C(=O)C(NC(=O)c2cccc(NC(=O)OCc3ccccc3)c2)N=C(c2ccccc2)c2ccccc21 (stereo not shown) [Compound 39] |  | potent and selective SENP inhibition |  |
| O=C(COC(=O)c1ccc(NC(=O)c2cccc(OCc3ccccc3)c2)cc1)c1ccc(Cl)cc1 [Compound 43] |  | modest improvement in activity |  |
| CCOc1ccc(-c2nonc2NC(=O)COc2ccc(Cl)c(C)c2)cc1C [Compound 46] |  | potent and selective SENP inhibition |  |
| Cc1cc(OCC(=O)Nc2nonc2NC(=O)COc2ccc(Cl)c(C)c2)ccc1Cl [Compound 47] |  | potent and selective SENP inhibition |  |
| O=C(NCc1cccc(CNC(=O)c2sc3cc(F)ccc3c2Cl)c1)c1sc2cc(F)ccc2c1Cl [Compound 49] |  | potent and selective SENP inhibition |  |
| O=C(Nc1cccc(NC(=O)c2ccc(-c3cc(Cl)ccc3Cl)o2)c1)c1ccccc1 [Compound 50] |  | potent and selective SENP inhibition |  |
| COc1ccc(-c2cccc(C(=O)NCc3cccc(NC(=O)CCc4ccccc4)c3)c2)cc1 [Compound 51] |  | potent and selective SENP inhibition |  |
| CNC(=O)c1cc(COC(=O)c2ccc3c(c2)c(COc2ccc4[nH]ccc4c2)cn3S(C)(=O)=O)cc(=O)[nH]1 [Compound 52] |  | potent and selective SENP inhibition |  |
| CS(=O)(=O)n1cc(COc2ccc3[nH]ccc3c2)c2cc(C(=O)OCc3cc(C#N)[nH]c(=O)c3)ccc21 [Compound 53] |  | potent and selective SENP inhibition |  |
| CNC(=O)c1cc(CNC(=O)c2ccc3c(c2)c(COc2ccc4[nH]ccc4c2)cn3S(C)(=O)=O)cc(=O)[nH]1 [Compound 54] |  | potent and selective SENP inhibition |  |
| COc1ccc(-c2nnc(Nc3nc4c(OC)cccc4s3)o2)cc1 [Compound N106] |  |  | SUMO-E1 activation [2]: capable of increasing SUMOylation through the activation of SUMO-E1 |
| O=C(Oc1cc(C(=O)O[C@H]2O[C@@H](OC(=O)c3cc(O)c(O)c(OC(=O)c4cc(O)c(O)c(O)c4)c3)[C@H](OC(=O)c3cc(O)c(O)c(OC(=O)c4cc(O)c(O)c(O)c4)c3)[C@@H](OC(=O)c3cc(O)c(O)c(OC(=O)c4cc(O)c(O)c(O)c4)c3)[C@@H]2OC(=O)c2cc(O)c(O)c(OC(=O)c3cc(O)c(O)c(O)c3)c2)cc(O)c1O)c1cc(O)c(O)c(O)c1 [Davidiin] | one of the most potent natural product SUMOylation inhibitors identified |  | formation of the E1-SUMO complex [2]: blocks the formation of the E1-SUMO complex |
| NS(=O)(=O)OC[C@H]1C[C@@H](Nc2ncncc2C(=O)c2ccn(Cc3cccc(Br)c3)n2)C[C@@H]1O [ML-792] |  |  | SAE / SUMO E1 inhibition [2]: selective SAE inhibitor |
| O=C1C(O)=C(c2ccc(O)cc2)C(=O)C(O)=C1c1ccc(O)cc1 [NSC76919] |  | exhibited inhibitory activity |  |
| CCc1cc(=O)[nH]c(-n2nc(-c3ccccc3)cc2NC(=O)Nc2ccc(C(C)(C)C)cc2)n1 [Pyrazole urea] | potent molecules capable of inhibiting SUMOylation in vitro |  |  |
| O=C(/C=C/C1C(OC(=O)c2ccc(-c3ccccc3)cc2)CC2OC(=O)CC21)Oc1cccc(Cl)c1 (stereo not shown) [SI2] |  | potent and selective SENP inhibition |  |
| Cc1cc(-c2ccc(/N=N/c3c(N)c(S(=O)(=O)O)cc4cc(S(=O)(=O)O)ccc34)c(C)c2)ccc1/N=N/c1c(N)ccc2ccc(S(=O)(=O)O)cc12 [SPI-02] |  |  | inhibition of SUMO2 maturation [3]: more active at inhibiting SUMO2 maturation |
| CC(O)[C@H](NC(=O)[C@H](CCC(N)=O)NC(=O)Cc1ccc(O)c([N+](=O)[O-])c1)C(=O)NCC(=O)NCC(=O)COC(=O)c1c2ccccc2cc2ccccc12 (stereo partly shown) [VAE-499] |  | more potent and selective SENP inhibitors |  |
| CC(O)[C@H](NC(=O)[C@H](CCC(N)=O)NC(=O)[C@H](CCC(N)=O)NC(=O)Cc1ccc(O)c([N+](=O)[O-])c1)C(=O)NCC(=O)NCC(=O)COC(=O)c1c2ccccc2cc2ccccc12 (stereo partly shown) [VAE-500] (X1-QQ[Thr(3ξ)]G-X2) |  | more potent and selective SENP inhibitors |  |
| CC(C)C[C@H](NC(=O)Cc1ccc(O)c([N+](=O)[O-])c1)C(=O)N[C@@H](CCCNC(=N)N)C(=O)NCC(=O)NCC(=O)COC(=O)c1c2ccccc2cc2ccccc12 [VAE-561] |  | more potent and selective SENP inhibitors |  |
| CC1CC2=C(O1)c1cccc(O)c1C(=O)C2=O (stereo not shown) [nocardione A] | potent SUMOylation inhibitors |  |  |
| COc1cc(NC(=O)Nc2nc(-c3nc4ccccc4s3)cs2)cc(OC)c1OC [thiazole urea] | potent molecules capable of inhibiting SUMOylation in vitro |  |  |
| CC1(C)CCC2=C(O1)c1ccccc1C(=O)C2=O [β-lapachone] | potent SUMOylation inhibitors |  |  |
